From publication PMC8780768 (Life, 2022)
Where “and” joins values, the source holds several entries; their conditions need not be identical. Equal values may be shown once. Read-outs that look alike come from different tables or passages of the source.

Experiments:
Type in all cases: cell-based
GABA-ρ1 receptors [1] = molecular target: T1, GABA-ρ1 receptors (Homo sapiens, UniProt P24046); assay: Two-electrode voltage-clamp, agonist dose–response at GABA-ρ1 receptors expressed in Xenopus oocytes
T1 construct: expressed in transfected cells; host or cells: Xenopus laevis oocytes injected with cRNA
T1 sequence (P24046 22-479): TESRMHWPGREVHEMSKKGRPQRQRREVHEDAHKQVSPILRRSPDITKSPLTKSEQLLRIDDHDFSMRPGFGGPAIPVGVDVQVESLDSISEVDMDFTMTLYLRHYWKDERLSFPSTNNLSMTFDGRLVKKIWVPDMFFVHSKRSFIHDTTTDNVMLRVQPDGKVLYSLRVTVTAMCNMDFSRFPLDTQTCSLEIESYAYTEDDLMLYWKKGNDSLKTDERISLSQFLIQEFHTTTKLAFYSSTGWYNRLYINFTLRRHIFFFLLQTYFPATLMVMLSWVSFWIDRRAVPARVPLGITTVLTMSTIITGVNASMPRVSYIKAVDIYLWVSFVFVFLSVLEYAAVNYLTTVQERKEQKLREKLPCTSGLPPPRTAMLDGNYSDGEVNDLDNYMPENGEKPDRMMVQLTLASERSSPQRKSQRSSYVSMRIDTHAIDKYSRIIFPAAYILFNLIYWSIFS
Method: (§1) Ovary lobes were dissected from female Xenopus laevis (South Africa clawed frogs), which were removed as reported previously, in accordance with the National Health and Medical Research Council (NHMRC) of Australia’s ethical guidelines. This procedure is also approved by the University of Sydney’s animal ethics committee (2013/5915). In brief, the females of Xenopus laevis were anaesthetized using 0.17% 3-aminobenzoic acid ethyl ester with 0.02% NaCl for 10–15 min, and a lobe of the ovary was dissected. The lobes were washed with oocyte releasing buffer 2 (OR2: 82.5 mM NaCl, 5 mM HEPES, 2 mM KCl, 1 mM MgCl2.6H2O pH 7.5) and incubated with collagenase A (2 mg·mL^−1 in OR2, Boehringer Mannheim, Mannheim, Germany) for approximately 2 h to separate oocytes from follicular cells and connective tissue. The released oocytes were washed in ND96 solution (96 mM NaCl, 1 mM MgCl2.6H2O, 2 mM KCl, 5 mM HEPES, and 1.8 mM CaCl2 pH 7.5). Stage V–VI oocytes were collected and injected in the cytoplasm using a 15–20 μm diameter tip micropipette (micropipette puller, Sutter Instruments, Novato, CA, USA) and a Nanoject injector (Drummond Scientific Co., Broomall, PA, USA) set to deliver a total of ~15 ng of cRNA.
(§2) The injected oocytes were placed on an oscillator at 18 °C for 2–6 days in ND96 solution, which contained 0.5 mM theophylline, 2.5 mM pyruvate, 50 μg/mL tetracycline, and 50 μg/mL gentamycin.
(§3) The activity of receptors was tested by recording whole cell currents using the two-electrode voltage clamp technique as previously reported. In brief, fabricated microelectrodes prepared with a micropipette puller (Sutter instruments, Novato, CA, USA), were filled with 3 M KCl solution (0.3–2.3 MΩ). Oocytes were immersed with ND96 buffer in the cell chamber at approximately 5 mL/min rate. The microelectrode impaled cells were clamped at −60 mV (voltage), and the currents elicited in response to the application of ligand/s was recorded using a Power Lab 2/25 analogue–digital data acquisition system (AD Instruments, Sydney, NSW, Australia), a Geneclamp 500 B amplifier (Axon Instrument, Foster City, CA, USA), and Lab Chart version 5.0.2 program (ADInstruments, Sydney, Australia).
(§4) Ligands were applied into the perfusate until a peak response (maximal) was reached. All stock solutions of the ligands were freshly made on the day of experiments. Solutions of ligands dissolved in DMSO were standardized to contain less than 0.8% DMSO in the final perfusate solution to prevent any alteration in the recordings. Perfusates containing these ligands (chemicals) were freshly prepared before each application. The dose–response curves of ligands were obtained by increasing the concentrations of applied agonists on oocytes until the maximum current reached. […] All experiments were conducted using at least two batches of oocytes.
(§5) I = Imax [A]^nH / (EC50^nH + [A]^nH)(1) where I is the current response, referring to a known concentration of agonist; Imax is the maximum current obtained; [A] is the agonist concentration; EC50 is the concentration of agonist/partial agonist at which the current response is half maximal; and nH is the Hill coefficient.

GABA-ρ2 receptors [2] = molecular target: T2, GABA-ρ2 receptors (Homo sapiens, UniProt P28476); assay: Two-electrode voltage-clamp, agonist dose–response at GABA-ρ2 receptors expressed in Xenopus oocytes; details: for GABA-ρ2 Efficacy: relative to GABA maximal response
T2 construct: expressed in transfected cells; host or cells: Xenopus laevis oocytes injected with cRNA
T2 sequence (P28476 21-465): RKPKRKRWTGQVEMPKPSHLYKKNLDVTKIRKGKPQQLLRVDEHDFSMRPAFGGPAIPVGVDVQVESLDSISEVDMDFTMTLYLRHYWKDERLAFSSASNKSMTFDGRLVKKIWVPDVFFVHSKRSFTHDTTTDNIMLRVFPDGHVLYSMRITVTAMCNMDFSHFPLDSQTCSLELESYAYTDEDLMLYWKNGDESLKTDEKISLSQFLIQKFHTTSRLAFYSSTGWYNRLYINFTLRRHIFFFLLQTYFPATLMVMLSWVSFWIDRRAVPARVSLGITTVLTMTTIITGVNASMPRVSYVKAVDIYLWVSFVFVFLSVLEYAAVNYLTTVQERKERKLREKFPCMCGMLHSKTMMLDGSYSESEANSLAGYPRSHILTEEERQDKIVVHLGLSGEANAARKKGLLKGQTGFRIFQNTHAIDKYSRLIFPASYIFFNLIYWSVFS
Method: as §1, §2, §3, §4, §5

GABA-ρ1 receptors [3] = molecular target: T1, GABA-ρ1 receptors; assay: Two-electrode voltage-clamp, co-application of ligand with GABA EC50 at GABA-ρ1 receptors (additive/inhibition); details: for GABA-ρ1 Additive/Inhibition Hill slope: co-application curve with GABA EC50
Method: as §3, §4, §5
(§6) The equations for bell-shaped and biphasic curves are embedded in GraphPad PRISM 8.02.
(§7) A p value < 0.05 was considered statistically significant. […] Significance assigned * if p < 0.05, ** if p < 0.01, *** if p < 0.001 and **** if p < 0.0001.

GABA-ρ2 receptors [4] = molecular target: T2, GABA-ρ2 receptors; assay: Two-electrode voltage-clamp, co-application of ligand with GABA EC50 at GABA-ρ2 receptors (additive/inhibition)
Method: as §3, §4, §5, §6, §7

[5] = TEVC, Xenopus oocytes, −60 mV, read-out: GABA-ρ1 EC50
[6] = relative to GABA maximal response
[7] = TEVC, Xenopus oocytes, −60 mV, read-out: GABA-ρ2 EC50
[8] = co-applied with GABA EC50, % of GABA EC50 response
[9] = co-application curve with GABA EC50 (800 nM)
[10] = co-applied with GABA EC50 (800 nM), % of GABA EC50 response
[11] = bell-shaped/biphasic co-application curve with GABA EC50

SMILES	EC50 (GABA-ρ1 receptors [1]; [5]) [µM]	GABA-ρ1 Efficacy (GABA-ρ1 receptors [1]; [6]) [%]	EC50 (GABA-ρ2 receptors [2]; [7]) [µM]	GABA-ρ2 Efficacy (GABA-ρ2 receptors [2]) [%]	GABA-ρ1 Additive/Inhibition Hill slope (GABA-ρ1 receptors [3])	GABA-ρ1 Additive (%) (GABA-ρ1 receptors [3]; [8])	GABA-ρ2 Additive/Inhibition Hill slope (GABA-ρ2 receptors [4]; [9])	GABA-ρ2 Additive (%) (GABA-ρ2 receptors [4]; [10])	% of GABA EC50 response when co-applied with 1 µM ligand (GABA-ρ2 receptors [4]; oocytes) [%]	GABA-ρ2 Additive (%) (GABA-ρ2 receptors [4])	EC50 (GABA-ρ1 receptors [1]) [µM]	EC50 (GABA-ρ2 receptors [2]) [µM]	% of GABA EC50 response when co-applied with 10 µM ligand (GABA-ρ2 receptors [4]; oocytes) [%]	further results
NCCCCC(=O)O [5-Aminovaleric acid, 5-amino valeric acid]	600	3	36	45	3 ± 0.75	125	0.6 ± 0.48	110	92	–	–	–	–	IC50 (GABA-ρ1 receptors [3]): 35 µM; IC50 (GABA-ρ2 receptors [4]): 10 µM; % of GABA EC50 response when co-applied with 100 µM ligand (GABA-ρ2 receptors [4]; oocytes): 51.1%
NC/C=C\C(=O)O [CACA]	93 ± 5.2	–	37 ± 12	60	0.9 ± 0.44	–	–	–	–	–	–	–	–	GABA-ρ1 Efficacy (GABA-ρ1 receptors [1]): 60%; GABA-ρ1 Additive (%) (GABA-ρ1 receptors [3]): 160%; effect on GABA EC50 response when co-applied with 1 mM ligand (GABA-ρ2 receptors [4]; GABA-ρ2, GABA EC50, ligand 1 mM, data not shown): does not show any significant effect
NCCCC(=O)O [GABA]	–	–	–	–	–	–	–	–	–	–	–	–	–	EC50 (GABA-ρ2 receptors [2]; TEVC, Xenopus oocytes, read-out: GABA-ρ2 EC50): 0.8 µM
NCC(=O)O [Glycine, glycine]	~1000	25	~1000	70	–	170	–	–	–	115	–	–	–	% of GABA EC50 response when co-applied with 1 µM ligand (GABA-ρ2 receptors [4]): does not show a significant effect; % of GABA EC50 response when co-applied with 100 µM ligand (GABA-ρ2 receptors [4]): 115.4% and 115%; GABA-ρ2 Additive/Inhibition nH1 (GABA-ρ2 receptors [4]; [11]): 1.8 ± 0.3; GABA-ρ2 Additive/Inhibition nH2 (GABA-ρ2 receptors [4]; [11]): 1.7 ± 0.5
O=C(O)Cc1c[nH]cn1 [Imidazole-4-acetic acid, imidazole-4-acetic acid]	–	10	–	40	1.3 ± 0.22	115	–	–	94.2 ± 1.4	110	66	0.2	86.25 ± 3.5	efficacy at GABA-ρ2 receptors, fold higher than at GABA-ρ1 receptors (GABA-ρ2 receptors [2]; ρ2 versus ρ1): 100 fold; potency at GABA-ρ2 receptors, fold higher than at GABA-ρ1 receptors (GABA-ρ2 receptors [2]; ρ2 versus ρ1): 4 fold; IC50 (GABA-ρ1 receptors [3]): 0.8 µM; GABA-ρ2 Additive/Inhibition Hill slope (GABA-ρ2 receptors [4]): 0.87 ± 0.39; IC50 (GABA-ρ2 receptors [4]): 2.4 µM
O=C(O)C1=CCNCC1 [Isoguvacine, isoguvacine]	205	40	35	25	0.57 ± 0.25	135	0.37 ± 3.1	120	106.8 ± 2.5	–	–	–	110 ± 4.3	efficacy at GABA-ρ1 receptors, fold higher than at GABA-ρ2 receptors (GABA-ρ1 receptors [1]; ρ1 versus ρ2): two-fold; potency at GABA-ρ2 receptors, fold higher than at GABA-ρ1 receptors (GABA-ρ2 receptors [2]; ρ2 versus ρ1): six-fold
NCc1cc(=O)[nH]o1 [Muscimol, muscimol]	–	80	–	65	–	125	–	–	106.9 ± 1.1	112	1.25	0.65	107.9 ± 3.1	GABA-ρ2 Additive/Inhibition Hill slope (GABA-ρ2 receptors [4]): 0.14 ± 0.48
NC/C=C/C(=O)O [TACA]	0.6	–	0.45 ± 0.4	85	0.9 ± 0.08	–	0.8 ± 0.46	140	118.4	–	–	–	137.5	GABA-ρ1 Efficacy (GABA-ρ1 receptors [1]): 95%; GABA-ρ1 Additive (%) (GABA-ρ1 receptors [3]): 190%
NCCC(=O)O [β-Alanine, β-alanine]	–	30	–	85	1.5 ± 0.8	120	–	120	108.9	–	400	560	–	% of GABA EC50 response when co-applied with 100 µM ligand (GABA-ρ2 receptors [4]; GABA-ρ2, GABA EC50 800 nM, ligand 100 µM): no significant effect; GABA-ρ2 Additive/Inhibition nH2 (GABA-ρ2 receptors [4]; [11]): 1.6 ± 0.36
